Results as given in patent US8252775B2, “Method of treating multiple sclerosis with phosphocholine containing lipids” (priority 2005, dated 2012).
Several values for one entry are separate records, joined by “and”; a condition that tells them apart may be missing. Identical values can stand only once. Entries after “also recorded” stand apart in the source; their conditions may differ.

Experiments:
[1] = tested on: TCR Tg LN cells; assay: CFSE T cell proliferation assay, MBPAc1-11-stimulated TCR Tg LN cells; type: cell-based, mice; conditions: 75 μM lipid, 5 μg/ml MBPAc1-11, 48 hours, CD3+ and CD4+ cells; vs media alone
[2] = tested on: CD69 expression on CD4+ T cells; assay: Flow cytometry of CD69 on restimulated lymph node cells from lipid-treated EAE mice; type: in vivo; conditions: for expression of early activation marker CD69 on CD4+ T cells: cells from treated EAE mice restimulated with PLP139-151, vs vehicle; for CD4+CD69+ cells / CD4+CD69− cells: lymph node cells of treated EAE mice, 4 days culture with 10 μg/ml PLP139-151; for CD4+CD69+ cells: vehicle 14.2%; for CD4+CD69− cells: vehicle 39.6%
Description: (§1) FIG. 5a-5b. PGPC treatment lowers IFNgamma secretion and early activation marker expression in response to the encephalitogenic antigen. (a) CD69 expression on CD4^+ and CD8^+PI^− lymphocytes (live cells) after 4 days in culture with 10 μg/ml PLP139-151. The ratio of CD69^+CD4^+:CD69^−CD4^+ is 14.2%:39.6% for lymph node cells from vehicle-treated mice, 9.6%:43.8% for cells from sphingomyelin-treated mice, and 7.96%:55.2% for cells from PGPC-treated mice. […] (b) Proliferation and cytokine assays of lymph node cells and splenocytes isolated from vehicle, PGPC, and sphingomyelin-treated mice in FIG. 4c.
(§2) Mice were sacrificed 48 days after disease induction and their spleens and lymph nodes (LN) harvested for analyses of expression of activation markers on subsets of T cells, measurements of secreted cytokines, and levels of T cell proliferation. Isolated cells were restimulated with the encephalitogenic antigen PLP139-151 and analyzed by flow cytometry. Dead cells (identified based on staining with propidium iodide) were eliminated from the analyses, and cells double stained with CD4-FITC or CD8-FITC and CD69-PE are presented (FIG. 5a). […] Specifically, the cells isolated from vehicle treated mice were 39.6% CD4^+CD69^− and 14.2% CD4^+CD69^+, whereas cells from PGPC treated mice were 55.2% CD4^+CD69^− and 7.96% CD4^+CD69^+.
Flow cytometric analysis. Cells were stained and run on a FACScan flow cytometer (BD Biosciences) using CellQuest software (BD Immunocytometry Systems). Results were analyzed using FlowJo software version 6.3.2 (Tree Star, Inc.). The following antibody conjugates were used: PE anti-mouse CD3, clone 145-2C11; FITC anti-mouse CD4, clone GK1.5; PE anti-mouse CD4, clone GK1.5; FITC anti-mouse CD8, clone 53-6.7; PE-anti-mouse CD69, clone H1.2F3. All anti-CD3, CD4, and CD8 antibodies were purchased from BD Pharmingen. Anti-mouse CD69 was purchased from eBioscience. 7AAD staining was performed using the reagents from the Annexin V-PE Apoptosis Detection Kit I (BD Pharmingen) using the manufacturer's recommended staining protocol. CFSE staining was performed on freshly isolated lymph node cells by mixing equal volumes of 37° C. pre-warmed cells in PBS containing 5% FBS with 10 μM solution of pre-warmed CFSE probe (CellTrace™ CFSE Cell Proliferation Kit) as described in the manufacturer's alternate method for labelling cells in solution (Molecular Probes).

[3] = tested on: EAE; assay: Prevention of EAE by co-delivery of lipid with PLP139-151/CFA; type: in vivo; conditions: SJL/J mice; 6 μg lipid with 100 μg PLP139-151 in CFA s.c. day 0, 6 μg i.p. days 4 and 7; vs vehicle
[4] = tested on: EAE; assay: Treatment of established EAE with intravenous lipid; type: in vivo, mice; conditions: 100 μg lipid i.v. at onset of paralysis and days 3, 6, 12, 18; five injections; vs vehicle
[5] = tested on: IFNγ; assay: IFNγ ELISA on PLP139-151-stimulated cells from lipid-treated EAE mice; type: in vivo; conditions: vs controls; for IFNγ secretion by lymph node cells: LN cells from treated EAE mice stimulated with PLP139-151
Description: as §1, §2
(§3) Proliferation and cytokine assays. We sacrificed mice and harvested their lymph node cells and splenocytes. 2.5×10^6 cells/ml were stimulated in vitro with 10 μg/ml PLP139-151, 1 μg/ml ConA, or media alone. Cells were cultured in RPMI 1640 with 10% fetal bovine serum, supplemented with L-glutamine (2 mM), sodium pyruvate (1 mM), non-essential amino acids (0.1 mM), penicillin (100 U/ml), streptomycin (0.1 mg/ml), and 2-mercaptoethanol (50 μM). To assess proliferation, 1 μCi of ^3H-thymidine was added to each well at 48 hours for the final 18 hours of culture, and radioactivity incorporation quantified using a Betaplate scintillation counter. Cytokine assays were performed on culture supernatants after 66 hours of culture using the BD OptEIA™ Mouse IFNγ ELISA kit (BD Biosciences). Results are shown as mean of triplicates+s.e.m.

[6] = tested on: MBPAc1-11-specific T cells; assay: 3H-thymidine proliferation of MBPAc1-11-stimulated LN cells with lipid in vitro; type: cell-based, mice
Description: (§4) FIG. 6a-6d. PGPC slows the rate of T cell proliferation. […] The 0 hour time point is shown as the high peak with the black dashed line. (c) 7AAD stained cells from TCR Tg mice^33, 48 hours after incubation with 5 μg/ml MBPAc1-11 with or without lipid. […] (d) LN cells stimulated with 1 μg/ml MBPAC1-11, 30 μg/ml PGPC, with or without 50 U/ml IL-2 are depicted.
(§5) To determine if the PGPC-mediated reduction in the proliferation rate of MBPAC1-11 stimulated T cells was due to cell death, we examined 7AAD uptake to identify dead cells at the 48 hour time point (FIG. 6c). […] This effect could be reversed by the addition of 50 U/ml IL-2 (p=0.024, Student's t test) (FIG. 6d), consistent with IL-2 mediated rescue of the T cells from an anergic state.
as §3, with “Cytokine assays were performed on culture supernatants after 66 hours of culture using the BD OptEIA™ Mouse IFNγ ELISA kit (BD Biosciences). Results are shown as mean of triplicates+s.e.m.” left out

[7] = tested on: splenocytes; assay: 3H-thymidine proliferation of PLP139-151-stimulated splenocytes from lipid-treated EAE mice; type: in vivo; conditions: PLP139-151-stimulated splenocytes from treated EAE mice
Description: as §1
Mice were sacrificed 48 days after disease induction and their spleens and lymph nodes (LN) harvested for analyses of expression of activation markers on subsets of T cells, measurements of secreted cytokines, and levels of T cell proliferation. Isolated cells were restimulated with the encephalitogenic antigen PLP139-151 and analyzed by flow cytometry. Dead cells (identified based on staining with propidium iodide) were eliminated from the analyses, and cells double stained with CD4-FITC or CD8-FITC and CD69-PE are presented (FIG. 5a). […]
(§6) Proliferation and cytokine assays. […] To assess proliferation, 1 μCi of ^3H-thymidine was added to each well at 48 hours for the final 18 hours of culture, and radioactivity incorporation quantified using a Betaplate scintillation counter. […]

[8] = tested on: TCR Tg LN cells; assay: 7AAD uptake (cell death) in MBPAc1-11-stimulated TCR Tg cells; type: cell-based; conditions: 75 μM lipid, 5 μg/ml MBPAc1-11, 48 hours
Description: as §4, §5
Flow cytometric analysis. Cells were stained and run on a FACScan flow cytometer (BD Biosciences) using CellQuest software (BD Immunocytometry Systems). Results were analyzed using FlowJo software version 6.3.2 (Tree Star, Inc.). The following antibody conjugates were used: PE anti-mouse CD3, clone 145-2C11; FITC anti-mouse CD4, clone GK1.5; PE anti-mouse CD4, clone GK1.5; FITC anti-mouse CD8, clone 53-6.7; PE-anti-mouse CD69, clone H1.2F3. All anti-CD3, CD4, and CD8 antibodies were purchased from BD Pharmingen. Anti-mouse CD69 was purchased from eBioscience. […]

[9] = tested on: anti-lipid antibodies; assay: Lipid array analysis of serum from mice co-immunized with PLP139-151 plus sulfatide; type: in vivo; conditions: SJL mice co-immunized with PLP139-151 plus sulfatide
Description: (§7) FIG. 9. […] (a) Co-immunization of SJL mice with sulfatide (6 μg/mouse) and PLP139-151 (100 μg/mouse) emulsified in CFA (▪ sulfatide n=10, ▪ vehicle control n=10). An additional immunization of sulfatide (6 μg/mouse) or vehicle was given i.p. on d4 and d7 post-immunization. Each point represents the mean+s.e.m. (*p<0.05; Student's t test). […] The heatmap and dendrograms represent the SAM and hierarchical cluster analysis of lipid array results. (c) Modulation of EAE disease course after i.v. injection of O4 anti-sulfatide antibody versus IgM isotype control (▪ O4 n=5, ▪ IgM control n=5). Antibody was given on days 14, 17, and 19 post-immunization.
Probing lipid arrays. Arrays were blocked overnight in 4° C. with 1% fatty acid free bovine serum albumin (BSA; Sigma) in phosphate buffered saline (PBS; Gibco BRL). Arrays were then probed with 1/10 dilutions of CSF, or 1/200 dilutions of sera for 2 hours at 4° C. After washing with blocking solution, a secondary antibody (anti-human IgG+IgM, Jackson Immunoresearch; anti-human IgG, Jackson Immunoresearch; anti-rabbit IgG, Amersham; or anti-mouse IgG, Amersham) conjugated to horseradish peroxidase (HRP) was added in blocking solution, and bound secondary antibodies visualized using chemiluminescence (ECL Plus, Amersham) and autoradiography. […]

[10] = tested on: IFNγ; assay: IFNγ production by PLP139-151-specific T cells from sulfatide co-immunized mice; type: in vivo; conditions: T cells from mice immunized with PLP139-151+sulfatide
Description: as §7
(§8) Further, the exacerbation of mouse EAE was associated with increased lymphocyte production of pro-inflammatory cytokines. Thus, characterization of the effects of candidate lipids in the mouse EAE model for MS (EAE), both with regard to their effects on disease severity as well as the production of pro-inflammatory cytokines by autoreactive lymphocytes can be used to identify lipids likely to exacerbated MS.
as §6, with “assays. We sacrificed mice and harvested their lymph node cells and splenocytes.” for “assays.”

[11] = tested on: IL-4; assay: IL-4 production by PLP139-151-specific T cells from sulfatide co-immunized mice; type: in vivo; conditions: T cells from mice immunized with PLP139-151+sulfatide
Description: as §7, §8

[12] = tested on: EAE; assay: Co-immunization with sulfatide plus PLP139-151, EAE disease course; type: in vivo; conditions: SJL mice; sulfatide 6 μg/mouse with PLP139-151 in CFA day 0, i.p. d4 and d7; vs vehicle
Description: as §7, §8
EAE induction and lipid co-immunization. […] Clinical disease was monitored daily using the following scoring system: 0, no disease; 1, limp tail; 2, hindlimb weakness; 3, hindlimb paralysis; 4, hindlimb and forelimb paralysis; 5, death. […]

[13] = tested on: IL-12; assay: IL-12 production by lymphocytes from sulfatide-treated mice; type: in vivo; conditions: lymphocytes from sulfatide-treated mice (sulfatide+PLP139-151)
Description: as §7

[14] = tested on: TNFα; assay: TNFα production by PLP139-151-specific T cells from sulfatide co-immunized mice; type: in vivo; conditions: T cells from mice immunized with PLP139-151+sulfatide

## sphingomyelin
[1]
  T cell proliferation by CFSE staining: mirrored that of the control; also recorded: line parallels gray shaded area
[2]
  expression of early activation marker CD69 on CD4+ T cells: intermediate level of CD69 expression
  CD4+CD69+ cells: 9.61% and 9.6%
  CD4+CD69− cells: 43.8%
[3]
  severity of EAE (prevention): statistically reduced the severity of EAE; also recorded: ameliorates EAE
[4]
  severity of paralysis in established EAE: only PGPC treats ongoing disease
[5]
  IFNγ secretion by lymph node cells: decreased IFNγ levels

## CCCCCCCCCCCCCCCC(=O)OC[C@H](COP(=O)([O-])OCC[N+](C)(C)C)OC(=O)CCCC(=O)O [PGPC, 1-palmitoyl-2-glutaroyl-sn-glycero-3-phosphocholine]
[1]
  T cell proliferation by CFSE staining: slowed T cell proliferation; also recorded: reduces T cell proliferation rates; also recorded: reduced cell divisions
[6]; 1 μg/ml MBPAc1-11, 30 μg/ml PGPC plus 50 U/ml IL-2
  effect of IL-2 on PGPC-mediated reduction of proliferation: IL-2 reversed this effect
[6]; LN cells, 1 μg/ml MBPAc1-11, 30 μg/ml PGPC
  MBPAc1-11-specific T cell proliferation (3H-thymidine incorporation): statistically significant reductions in MBPAc1-11-specific T cell proliferation; also recorded: reduced cell proliferation
[2]
  expression of early activation marker CD69 on CD4+ T cells: marked reduction in the expression of the early activation marker CD69
  CD4+CD69+ cells: 7.96%
  CD4+CD69− cells: 55.2%
[7]
  3H-thymidine incorporation (proliferation) of splenocytes: reduced; also recorded: slightly lower proliferation
[3]
  severity of EAE (prevention): statistically reduced the severity of EAE; also recorded: ameliorates EAE
[4]
  severity of paralysis in established EAE: reduced the severity of paralysis; also recorded: treats ongoing disease
[5]
  IFNγ secretion by lymph node cells: secreted less IFNgamma; also recorded: secreted lower levels of IFNγ
[5]; listed as PCPG
  IFNγ secretion by lymph node cells: decreased IFNγ levels
[5]; splenocytes from treated EAE mice stimulated with PLP139-151
  IFNγ secretion by splenocytes: secreted less IFNgamma; also recorded: secreted lower levels of IFNγ
[8]
  cell death by 7AAD uptake: not due to cell death; also recorded: not inducing cell death

## sulfatide
[9]
  anti-lipid antibody reactivities in serum: increased anti-sulfatide and other anti-lipid antibody reactivities; also recorded: increased anti-lipid antibodies
[10]
  IFNγ production in response to PLP139-151: increased amounts; also recorded: increased levels
[11]
  IL-4 production in response to PLP139-151: less and lower levels
[12]
  EAE disease course after co-immunization: exacerbated murine MS; also recorded: more severe EAE disease course
[13]
  IL-12 production: increased levels
[14]
  TNFα production in response to PLP139-151: increased amounts
